Calls of active or inactive are those of the source.
Key:
HEK293 = assay: cells; type: functional, cell-based; details: Homo sapiens
[1] = biological target: T1, Nuclear receptor subfamily 0 group B member 1 (Homo sapiens, UniProt P51843); assay: Luminescence-based cell-based high throughput dose response assay for inhibitors of the orphan nuclear receptor subfamily 0, group B, member 1 (DAX1; NR0B1). [Related pubchem assays (depositor defined):AID504766, AID504790]; type: functional
T1 sequence (P51843 whole entry): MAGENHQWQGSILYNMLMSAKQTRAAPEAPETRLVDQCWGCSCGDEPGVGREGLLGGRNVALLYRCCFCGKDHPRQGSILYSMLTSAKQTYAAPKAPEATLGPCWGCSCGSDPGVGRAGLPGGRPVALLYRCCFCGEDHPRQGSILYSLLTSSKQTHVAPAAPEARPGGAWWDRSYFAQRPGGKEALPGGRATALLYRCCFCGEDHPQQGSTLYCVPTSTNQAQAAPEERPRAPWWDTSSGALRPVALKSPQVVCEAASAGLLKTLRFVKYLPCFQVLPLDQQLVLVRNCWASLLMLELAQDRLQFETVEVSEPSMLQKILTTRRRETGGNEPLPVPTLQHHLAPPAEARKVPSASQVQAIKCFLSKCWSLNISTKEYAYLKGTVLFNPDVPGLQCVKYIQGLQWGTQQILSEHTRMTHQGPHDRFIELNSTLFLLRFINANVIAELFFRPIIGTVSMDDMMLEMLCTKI

Caspase-3 = biological target: T2, Caspase-3 (Homo sapiens, UniProt P42574); type: functional;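 note: Dose-response selectivity test against caspase-3 for candidate inhibitors of sentrin-specific proteases (SENPs)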
T2 sequence (P42574 whole entry): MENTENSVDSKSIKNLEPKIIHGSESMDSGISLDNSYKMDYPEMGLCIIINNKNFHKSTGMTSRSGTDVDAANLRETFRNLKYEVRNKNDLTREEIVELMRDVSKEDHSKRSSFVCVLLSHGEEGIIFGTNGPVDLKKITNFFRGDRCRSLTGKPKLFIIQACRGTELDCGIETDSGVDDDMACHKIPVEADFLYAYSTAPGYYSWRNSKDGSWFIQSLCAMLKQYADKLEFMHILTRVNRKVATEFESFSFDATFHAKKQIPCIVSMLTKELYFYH

[2] = biological target: T3, Sentrin-specific protease 7 (Homo sapiens, UniProt Q9BQF6); type: functional;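 note: Luminescence-based dose-response confirmation of ultra-high-throughput screening hits, measuring inhibition of SENP7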
T3 sequence (Q9BQF6 whole entry): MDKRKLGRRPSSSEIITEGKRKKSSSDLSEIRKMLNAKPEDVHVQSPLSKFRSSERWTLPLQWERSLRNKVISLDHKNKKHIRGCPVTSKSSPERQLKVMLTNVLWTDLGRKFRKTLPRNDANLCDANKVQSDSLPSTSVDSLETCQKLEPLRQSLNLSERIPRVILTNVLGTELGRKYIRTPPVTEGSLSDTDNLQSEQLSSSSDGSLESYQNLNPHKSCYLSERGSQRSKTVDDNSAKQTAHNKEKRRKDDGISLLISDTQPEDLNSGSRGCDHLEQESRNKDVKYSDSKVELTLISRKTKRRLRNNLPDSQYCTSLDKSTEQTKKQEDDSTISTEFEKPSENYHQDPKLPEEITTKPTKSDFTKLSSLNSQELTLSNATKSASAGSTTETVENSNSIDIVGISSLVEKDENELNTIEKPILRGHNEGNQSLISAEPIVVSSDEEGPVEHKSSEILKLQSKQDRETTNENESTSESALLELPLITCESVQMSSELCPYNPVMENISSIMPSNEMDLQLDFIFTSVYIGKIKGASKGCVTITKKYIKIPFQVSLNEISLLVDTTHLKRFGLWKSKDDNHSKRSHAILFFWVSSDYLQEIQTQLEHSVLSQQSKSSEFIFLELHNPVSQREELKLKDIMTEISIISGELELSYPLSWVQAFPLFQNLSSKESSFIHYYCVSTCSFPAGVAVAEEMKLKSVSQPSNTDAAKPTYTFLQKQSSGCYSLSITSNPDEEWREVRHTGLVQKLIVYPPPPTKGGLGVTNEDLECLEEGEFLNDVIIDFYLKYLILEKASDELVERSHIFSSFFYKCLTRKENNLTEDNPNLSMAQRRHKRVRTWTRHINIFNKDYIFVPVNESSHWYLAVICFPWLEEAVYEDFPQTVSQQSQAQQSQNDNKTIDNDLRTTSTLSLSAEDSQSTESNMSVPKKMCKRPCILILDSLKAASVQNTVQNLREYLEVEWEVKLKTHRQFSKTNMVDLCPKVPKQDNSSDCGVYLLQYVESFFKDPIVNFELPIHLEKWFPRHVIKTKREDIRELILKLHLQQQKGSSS

[3] = biological target: T4, Sentrin-specific protease 6 (Homo sapiens, UniProt Q9GZR1); type: functional;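 note: Luminescence-based dose-response confirmatory assay of SENP6 inhibition, following up an ultra-high-throughput screen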
T4 sequence (Q9GZR1 whole entry): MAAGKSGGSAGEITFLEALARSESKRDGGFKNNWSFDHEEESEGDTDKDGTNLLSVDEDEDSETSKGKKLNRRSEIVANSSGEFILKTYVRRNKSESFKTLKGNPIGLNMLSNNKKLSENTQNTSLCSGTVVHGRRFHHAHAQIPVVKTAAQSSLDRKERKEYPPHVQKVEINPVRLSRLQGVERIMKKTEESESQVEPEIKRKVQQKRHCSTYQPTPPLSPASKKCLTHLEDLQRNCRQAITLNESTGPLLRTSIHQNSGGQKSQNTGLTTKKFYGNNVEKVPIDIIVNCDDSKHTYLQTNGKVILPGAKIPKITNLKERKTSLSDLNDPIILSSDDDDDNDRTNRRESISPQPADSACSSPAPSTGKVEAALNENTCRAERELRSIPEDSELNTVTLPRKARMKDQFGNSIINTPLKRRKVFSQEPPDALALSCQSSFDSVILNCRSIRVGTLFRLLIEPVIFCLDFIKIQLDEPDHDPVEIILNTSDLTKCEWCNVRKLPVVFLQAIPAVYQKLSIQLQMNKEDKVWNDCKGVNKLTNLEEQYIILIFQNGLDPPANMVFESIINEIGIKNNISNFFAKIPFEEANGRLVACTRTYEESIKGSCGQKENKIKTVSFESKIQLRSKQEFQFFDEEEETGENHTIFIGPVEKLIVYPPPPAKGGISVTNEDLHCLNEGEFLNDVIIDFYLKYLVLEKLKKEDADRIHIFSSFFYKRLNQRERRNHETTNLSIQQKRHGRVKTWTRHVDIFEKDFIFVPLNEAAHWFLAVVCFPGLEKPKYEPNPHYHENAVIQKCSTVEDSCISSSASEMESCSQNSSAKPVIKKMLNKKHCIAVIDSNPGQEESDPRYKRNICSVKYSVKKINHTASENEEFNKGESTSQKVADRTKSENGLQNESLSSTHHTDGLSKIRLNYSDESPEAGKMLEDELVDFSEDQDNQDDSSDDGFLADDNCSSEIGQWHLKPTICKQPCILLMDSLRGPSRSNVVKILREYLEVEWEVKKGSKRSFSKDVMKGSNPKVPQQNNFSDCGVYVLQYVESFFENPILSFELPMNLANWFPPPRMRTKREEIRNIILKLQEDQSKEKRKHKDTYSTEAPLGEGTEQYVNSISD

[4] = biological target: T5, Sentrin-specific protease 8 (Homo sapiens, UniProt Q96LD8); type: functional;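 note: luminescence read-out of SENP8 inhibition, dose-response confirmation following an ultra-high-throughput screen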
T5 sequence (Q96LD8 whole entry): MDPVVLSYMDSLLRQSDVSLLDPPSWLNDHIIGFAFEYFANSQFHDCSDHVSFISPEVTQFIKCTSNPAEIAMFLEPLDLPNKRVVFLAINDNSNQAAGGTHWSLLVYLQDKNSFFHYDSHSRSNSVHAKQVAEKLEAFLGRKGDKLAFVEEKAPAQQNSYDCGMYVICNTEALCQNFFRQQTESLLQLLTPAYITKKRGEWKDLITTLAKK

HeLa = assay: ATP-based viability loss in HeLa cells – cell-based, CellTiter-Glo luminescence, cherry-pick samples, cytotoxicity control for MITF activator project, dose response (AID 540259); type: functional; details: Homo sapiens
[5] = biological target: Voltage-gated inwardly rectifying potassium channel KCNH2 (Homo sapiens, UniProt Q12809); details: Potency;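 note: confirmatory quantitative high-throughput screen measuring inhibition of hERG channel activity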
Voltage-gated inwardly rectifying potassium channel KCNH2, sequence (Q12809 whole entry): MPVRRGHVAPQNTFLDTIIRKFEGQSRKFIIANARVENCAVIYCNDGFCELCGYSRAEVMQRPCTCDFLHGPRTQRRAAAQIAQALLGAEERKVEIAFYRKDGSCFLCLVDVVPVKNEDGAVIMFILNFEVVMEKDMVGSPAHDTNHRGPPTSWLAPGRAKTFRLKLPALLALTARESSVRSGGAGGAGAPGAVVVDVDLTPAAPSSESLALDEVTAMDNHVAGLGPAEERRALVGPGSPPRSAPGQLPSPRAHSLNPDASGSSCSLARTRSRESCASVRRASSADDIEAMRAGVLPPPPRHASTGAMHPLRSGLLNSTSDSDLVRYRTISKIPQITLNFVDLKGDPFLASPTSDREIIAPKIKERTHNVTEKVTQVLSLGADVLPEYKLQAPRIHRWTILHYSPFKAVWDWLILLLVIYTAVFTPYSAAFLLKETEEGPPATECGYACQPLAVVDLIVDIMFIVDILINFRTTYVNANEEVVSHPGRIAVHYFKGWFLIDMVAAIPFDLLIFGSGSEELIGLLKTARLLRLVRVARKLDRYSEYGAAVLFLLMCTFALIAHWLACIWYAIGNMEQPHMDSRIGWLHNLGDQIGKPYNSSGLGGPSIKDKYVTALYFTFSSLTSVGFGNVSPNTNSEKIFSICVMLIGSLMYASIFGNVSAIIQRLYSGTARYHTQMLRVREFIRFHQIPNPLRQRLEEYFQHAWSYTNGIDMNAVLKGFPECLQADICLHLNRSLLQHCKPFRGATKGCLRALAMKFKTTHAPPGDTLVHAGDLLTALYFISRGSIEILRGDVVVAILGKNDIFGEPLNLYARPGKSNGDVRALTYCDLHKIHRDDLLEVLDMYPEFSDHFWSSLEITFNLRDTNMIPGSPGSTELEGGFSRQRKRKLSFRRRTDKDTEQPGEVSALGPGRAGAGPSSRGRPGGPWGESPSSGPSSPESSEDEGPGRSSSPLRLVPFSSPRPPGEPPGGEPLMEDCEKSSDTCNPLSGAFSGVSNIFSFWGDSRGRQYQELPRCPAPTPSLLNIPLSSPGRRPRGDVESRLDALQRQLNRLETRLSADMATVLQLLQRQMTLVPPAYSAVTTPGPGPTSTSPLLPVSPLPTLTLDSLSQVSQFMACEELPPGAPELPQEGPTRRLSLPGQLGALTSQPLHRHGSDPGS

[6] = NIH-3T3 fibroblast cytotoxicity, dose response, cytotoxicity control, cell-based, fluorescence, Alamar Blue, secondary assay (AID 2327); type: functional;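 note: NIH-3T3 mouse fibroblasts cultured with fluconazole at 8 µg/mL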
[7] = fluconazole-exposed Candida albicans growth modulators – fluorescence, retest, confirmation (AID 2467); type: functional, cell-based
[8] = biological target: T6, Serine/threonine-protein phosphatase (Candida dubliniensis (strain CD36 / CBS 7987 / NCPF 3949 / NRRLY-17841) (Yeast), UniProt B9W6M3); assay: blockers of CaCl2-induced CDRE-lacZ signaling – S. cerevisiae, luminescence, secondary, dose response (AID 2388); type: functional, cell-based;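 note: yeast reporter cells carrying a calcineurin-responsive lacZ construct stimulated with calcium chloride; luminescent beta-galactosidase reporter signal in whole cells rather than isolated phosphatase activity; potency for inhibition where a drop in reporter signal means calcineurin blockade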
T6 sequence (B9W6M3 whole entry): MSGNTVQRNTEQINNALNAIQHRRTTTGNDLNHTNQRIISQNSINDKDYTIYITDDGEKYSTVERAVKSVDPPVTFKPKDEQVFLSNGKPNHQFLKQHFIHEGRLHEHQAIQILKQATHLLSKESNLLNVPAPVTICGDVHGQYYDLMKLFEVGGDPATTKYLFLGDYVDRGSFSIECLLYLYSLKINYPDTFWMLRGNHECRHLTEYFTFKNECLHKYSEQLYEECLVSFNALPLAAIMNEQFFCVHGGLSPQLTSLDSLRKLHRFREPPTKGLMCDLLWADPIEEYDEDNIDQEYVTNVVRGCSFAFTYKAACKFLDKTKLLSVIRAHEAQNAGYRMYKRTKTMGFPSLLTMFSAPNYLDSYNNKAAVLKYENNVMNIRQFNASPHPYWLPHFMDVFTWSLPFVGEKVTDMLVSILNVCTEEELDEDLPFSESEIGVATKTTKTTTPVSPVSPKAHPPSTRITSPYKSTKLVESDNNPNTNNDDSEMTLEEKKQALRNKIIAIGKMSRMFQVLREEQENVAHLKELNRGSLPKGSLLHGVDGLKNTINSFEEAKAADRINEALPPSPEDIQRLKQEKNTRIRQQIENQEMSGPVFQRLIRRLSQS

[9] = biological target: ATP-dependent molecular chaperone HSP82 (Candida albicans (strain WO-1) (Yeast), UniProt C4YTQ8); assay: steroid-induced GRE reporter decrease in yeast – S. cerevisiae, luminescence, Hsp90 inhibitor project, dose response (AID 2400); type: functional, cell-based;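 note: beta-galactosidase luminescence from glucocorticoid response element reporter as proxy for Hsp90 function; inhibitor potency where signal loss means Hsp90 inhibition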
ATP-dependent molecular chaperone HSP82, sequence (C4YTQ8 whole entry): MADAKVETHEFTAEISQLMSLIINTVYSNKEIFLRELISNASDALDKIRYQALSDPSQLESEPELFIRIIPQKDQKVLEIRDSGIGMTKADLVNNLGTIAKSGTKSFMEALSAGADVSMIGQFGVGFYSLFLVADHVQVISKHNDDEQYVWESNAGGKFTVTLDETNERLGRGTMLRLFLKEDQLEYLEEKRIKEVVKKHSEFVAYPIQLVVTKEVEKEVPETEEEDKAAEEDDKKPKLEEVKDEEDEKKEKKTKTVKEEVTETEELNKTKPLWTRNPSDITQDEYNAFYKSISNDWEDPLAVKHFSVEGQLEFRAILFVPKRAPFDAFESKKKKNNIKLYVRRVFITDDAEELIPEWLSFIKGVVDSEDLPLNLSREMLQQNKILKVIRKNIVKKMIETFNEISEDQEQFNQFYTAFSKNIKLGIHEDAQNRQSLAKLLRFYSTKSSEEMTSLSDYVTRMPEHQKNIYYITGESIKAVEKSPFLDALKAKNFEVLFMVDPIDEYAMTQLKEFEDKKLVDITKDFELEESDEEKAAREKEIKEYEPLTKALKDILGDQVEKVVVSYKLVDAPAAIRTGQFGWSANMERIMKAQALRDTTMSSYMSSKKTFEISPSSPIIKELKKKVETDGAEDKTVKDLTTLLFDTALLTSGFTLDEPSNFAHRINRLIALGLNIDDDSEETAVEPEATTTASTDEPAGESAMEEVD

Beta-galactosidase = Beta-galactosidase (Escherichia coli, UniProt Q8VNN2); assay: PubChem AID 485352; type: functional
Beta-galactosidase, sequence (Q8VNN2 whole entry): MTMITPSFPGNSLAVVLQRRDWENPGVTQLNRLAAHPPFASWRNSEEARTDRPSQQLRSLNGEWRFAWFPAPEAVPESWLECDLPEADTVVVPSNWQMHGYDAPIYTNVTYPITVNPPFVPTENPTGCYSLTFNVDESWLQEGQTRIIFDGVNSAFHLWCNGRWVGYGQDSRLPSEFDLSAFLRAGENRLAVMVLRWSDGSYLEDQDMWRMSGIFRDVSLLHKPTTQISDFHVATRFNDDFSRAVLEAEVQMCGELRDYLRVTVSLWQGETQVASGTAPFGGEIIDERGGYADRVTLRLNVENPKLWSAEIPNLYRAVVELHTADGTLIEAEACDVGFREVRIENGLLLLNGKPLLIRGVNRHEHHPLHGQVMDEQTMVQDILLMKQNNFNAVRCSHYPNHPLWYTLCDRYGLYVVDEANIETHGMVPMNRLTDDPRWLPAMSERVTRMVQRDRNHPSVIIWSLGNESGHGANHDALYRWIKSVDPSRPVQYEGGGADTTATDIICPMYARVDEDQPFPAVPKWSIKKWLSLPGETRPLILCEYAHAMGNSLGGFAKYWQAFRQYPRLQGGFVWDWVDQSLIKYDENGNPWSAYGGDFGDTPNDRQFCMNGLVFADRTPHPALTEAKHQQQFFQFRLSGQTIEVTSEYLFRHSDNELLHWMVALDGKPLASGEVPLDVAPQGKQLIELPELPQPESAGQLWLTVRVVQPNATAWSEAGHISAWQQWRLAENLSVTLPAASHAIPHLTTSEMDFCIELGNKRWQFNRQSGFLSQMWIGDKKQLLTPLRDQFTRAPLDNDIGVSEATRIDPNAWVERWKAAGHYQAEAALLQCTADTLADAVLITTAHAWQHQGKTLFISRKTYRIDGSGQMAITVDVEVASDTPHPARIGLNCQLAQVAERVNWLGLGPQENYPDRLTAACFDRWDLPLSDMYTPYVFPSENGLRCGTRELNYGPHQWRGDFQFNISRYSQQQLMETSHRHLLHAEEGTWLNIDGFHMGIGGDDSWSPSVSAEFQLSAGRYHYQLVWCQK

[10] = biological target: T7, Type-1 angiotensin II receptor (Homo sapiens, UniProt P30556); assay: antagonism of angiotensin II type 1 receptor – cell-based, uHTS hits, selectivity assay for APJ receptor antagonist project, dose response (AID 463214); type: functional;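 note: antagonist potency against angiotensin II stimulated AT1 response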
T7 sequence (P30556 whole entry): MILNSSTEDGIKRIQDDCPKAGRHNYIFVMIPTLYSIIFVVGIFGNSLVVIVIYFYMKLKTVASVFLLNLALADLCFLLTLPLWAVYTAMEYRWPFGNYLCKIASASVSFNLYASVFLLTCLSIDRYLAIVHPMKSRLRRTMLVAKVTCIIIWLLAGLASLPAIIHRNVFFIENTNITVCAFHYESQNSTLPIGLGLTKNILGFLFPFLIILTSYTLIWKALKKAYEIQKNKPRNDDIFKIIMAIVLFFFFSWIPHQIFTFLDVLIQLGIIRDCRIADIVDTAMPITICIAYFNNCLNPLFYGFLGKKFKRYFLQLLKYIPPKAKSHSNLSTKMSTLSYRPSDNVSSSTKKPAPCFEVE

[11] = viability of uninfected HEp-2 cells – cell-based, HTS, cytotoxicity control for RSV inhibitor project, dose response (AID 2410); type: functional; details: human respiratory syncytial virus
Vero = assay: viability of Vero cells under compound – cytotoxicity control for flavivirus capping enzyme inhibitors (AID 588742); type: functional; details: Chlorocebus sabaeus

In the case of `CCOC(=O)c1nn(-c2ccc(Cl)cc2)cc1O`, the IC50 (HEK293) is reported as > 67.5 µM (inactive) and the IC50 [1] is reported as > 67.5 µM (inactive).
For `Cc1ccc2c(c1N)C(=O)c1ccccc1C2=O`, the IC50 (Caspase-3) was 11.8 µM (active), the IC50 [2] was 4.33 µM (active) and the IC50 [3] was 42.3 µM (active). The IC50 [4] was > 100 µM (inactive), the AC50 (HeLa) was 36 µM (active) and the AC50 [5] was 35.5 µM (inconclusive).
In the case of `CCOc1ccc(-n2c(=O)[nH]c3sc4c(c3c2=O)CCCC4)cc1`, the IC50 (HEK293) is reported as > 67.6 µM (inactive) and the IC50 [1] is reported as > 67.6 µM (inactive).
In the case of `COc1ccc(-n2nc(C(=O)NCC(=O)NCCC3=CCCCC3)c3ccccc3c2=O)c(OC)c1`, the EC50 [6] is reported as > 150 µM (inactive), the EC50 [7] is reported as 469 nM (active) and the EC50 [8] is reported as > 180 µM (inactive). The EC50 [9] was > 150 µM (inactive).
With `O=C(CN1C(=O)C2C3C=CC(C3)C2C1=O)OCC(=O)c1ccc(Cl)c([N+](=O)[O-])c1` (stereo unspecified) the EC50 (Beta-galactosidase) was > 40 µM (inactive) and the IC50 [10] was 14.3 µM (active).
In the case of `O=C(CNc1ccccc1C(=O)O)c1ccccc1`, the EC50 (Beta-galactosidase) is reported as > 40 µM (inactive) and the IC50 [10] is reported as 7.51 µM (active).
In the case of `COc1ccccc1N1CCN(C(S)=Nc2ccc3nc(N4CCOCC4)cc(C)c3c2)CC1`, the CC50 [11] is reported as 39.1 µM (active) and the CC50 (Vero) is reported as > 40 µM (active).
With `C/C(=N\NC(=O)c1nn(C)cc1Br)c1ccncc1` the IC50 (HEK293) was > 67.6 µM (inactive) and the IC50 [1] was > 67.6 µM (inactive).
For `Cc1nn(-c2ccccc2)c(C)c1C(=O)OC/C(O)=C(\C#N)c1nc2ccccc2[nH]1`, the EC50 [6] was > 150 µM (inconclusive), the EC50 [7] was 764 nM (active) and the EC50 [8] was > 180 µM (inactive). The EC50 [9] was > 150 µM (inactive).
